Reference: patent US20250262152A1, “DEVICES, SYSTEMS, KITS, AND METHODS FOR DRUG DELIVERY TO THE SPINAL CORD” (Ohio State Innovation Foundation, priority 2022, published 2025)

Experiment: proof-of-principle fluorescence tracer study: delivery to the spinal cord with dumbbell-shaped dual chamber stentgraft and histamine portal
Assay type: in vivo
Method: As a proof-of-principle study, we evaluated this strategy by using a dumbbell-shaped dual chamber stentgraft to deliver a fluorescent tracer (fluorescein dye) to the spinal cord. In this fluorescence tracer study, delivery of the tracer to the spinal cord using the dumbbell stentgraft was performed using a histamine portal (see FIGS. 3A-3C and FIG. 5). The dual chamber stent was used to deliver a “pulse” of histamine specifically to the spinal cord region of interest to create a “portal” in the BBB (i.e., a local increase in BBB permeability).
Dual chamber, retrievable stent graft: Stents were laser cut from the shape memory alloy, nitinol, and thermally shapeset into a dumbbell shape. The scaffold was affixed to a permanently attached delivery/retrieval wire, encapsulated in the polymer polytetrafluoroethelene (Zeus, Inc) with a perfusion cannula to the outer chamber and compressed into a sheath for endovascular delivery.

O=C1OC2(c3ccc(O)cc3Oc3cc(O)ccc32)c2ccccc21 [fluorescein]
staining of spinal cord cross sections viewed under UV Woods lamp (histamine pulse followed by tracer delivered to outer chamber of dual chamber stentgraft, FIG. 3C): successful staining of the entirety of the spinal cord
delivery of fluorescein to the spinal cord (local administration in combination with portal agent (histamine) as compared to intravascular tracer injection alone, FIG. 5): much higher
